Results from patent publication US20260216138A1, “IDENTIFICATION OF OTUD7B INHIBITOR 7BI AND ITS APPLICATION IN REDUCING GROWTH OF NSCLC AND LEUKEMIA CELLS” (The University of North Carolina at Chapel Hill, priority 2023, published 2026).

Tests used:
Akt-pS473 = Akt-pS473 immunoblot in HEK293 cells; format: cell-based
Experimental: Cells were harvested and lysed in EBC buffer (50 mM Tris pH 7.5, 120 mM NaCl, 0.5% NP-40) supplemented with protease inhibitor cocktail (EDTA-free, mini-tablet) (Bimake) and phosphatase inhibitor cocktail (Bimake) by rotating in the cold room for 10 min followed by high-speed centrifugation at 4° C. The protein concentrations in supernatants of whole cell lysates were measured by NanoDrop OneC using the Bio-Rad Bradford protein assay reagent. Equal amounts of whole cell lysates were resolved on SDS-PAGE and immunoblotted with indicated antibodies. For immunoprecipitation analysis, 1 mg of total cell lysate was incubated with the indicated beads for 3-4 hr at 4° C. The recovered immuno-complexes were washed thoroughly three times with NETN buffer (20 mM Tris, pH 8.0, 100 mM NaCl, 1 mM EDTA and 0.5% NP-40) before being resuspended in SDS sample buffer and resolved on SDS-PAGE and immunoblotted with indicated antibodies. […]

OTUD7B = molecular target: T1, OTUD7B (Homo sapiens, UniProt Q6GQQ9); assay: Ubiquitin-AMC assay, OTUD7B; format: biochemical; details: 50 μM 7Bi, 300 nM OTUD7B, 2 uM ubiquitin-AMC
T1 construct: OTUD7B (residues 56-446); GST (N, cleaved yes); made in house; host or cells: E. coli BL21-Codon Plus (DE3)-RIL
T1 sequence (Q6GQQ9 56-446): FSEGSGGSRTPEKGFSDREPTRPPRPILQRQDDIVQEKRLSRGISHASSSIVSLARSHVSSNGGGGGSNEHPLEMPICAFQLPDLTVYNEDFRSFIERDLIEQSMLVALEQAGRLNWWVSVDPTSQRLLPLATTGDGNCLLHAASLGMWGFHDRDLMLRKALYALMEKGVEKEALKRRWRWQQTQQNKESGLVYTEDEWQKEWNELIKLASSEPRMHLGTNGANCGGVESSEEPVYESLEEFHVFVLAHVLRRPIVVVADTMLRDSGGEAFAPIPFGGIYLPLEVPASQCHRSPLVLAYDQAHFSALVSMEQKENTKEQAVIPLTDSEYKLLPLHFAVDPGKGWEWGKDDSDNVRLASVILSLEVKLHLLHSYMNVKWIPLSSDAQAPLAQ
Experimental: 50 μM 7Bi were incubated with 300 nM OTUD7B (residues 56-446), 10 μM OTUD7A (residues 1-462), 200 nM USP21 (residues 196-565), or 500 nM USP9X (residues 1551-1970) in reaction buffer (20 mM HEPES pH=8.0, 200 mM NaCl, 0.25 mg/mL BSA and 0.005% Tween-20) for 5 min at room temperature. Then, 2 uM ubiquitin-AMC was added to start the reaction. The fluorescence emission data was collected at an excitation wavelength of 355 nm and emission wavelength of 460 nm every 3 min. Reactions were completed three times to generate the error bars.

H520 cells = assay: Colony formation / growth of H520 cells; format: cell-based; details: treated once for 10 days
Experimental: 500 cells from OTUD7B depleted A549 cells were seeded into each well of 6-well plates and cultured in the 37° C. incubator with 5% CO2 for 10-15 days until formation of visible colonies. Triplicates were performed. To test the effect of a given inhibitor on colony formation ability, 800 cells from A549, H520 and H1299 cell lines were seeded into each well of 6-well plates, respectively. Each inhibitor was added at indicated concentration the next day. Colonies were counted after 10 days of treatment. The colony staining method was as described. […] Colony numbers were counted manually. […]
2,000 cells from indicated NSLC cell lines were seeded into each well of 96-well plates. Cell viability was measured 3 days post-treatment using MTT assays following manufacturer's instruction. […] Inhibitor was added the next day at indicated concentration and cell viability was measured after 3-day treatment. For cell proliferation assays in THP1, K562 and HL60 cell lines, 1×10^6 cells from each indicated cell line were seeded in 12.5 cm2 cell culture flask and cells were counted by hemocytometer under microscope at indicated time to monitor cell proliferation. […] Inhibitor was added the next day at indicated concentrations and cell number was counted after 3 days treatment. […]

Compound: Cc1cc(NC(=O)c2cnn(C)c2C(=O)Nc2cc(C)nn2C2CCCC2)n(C2CCCC2)n1 [7Bi]
- downregulation of Akt-pS473 signals by purified 7Bi (Akt-pS473; HPLC purified 7Bi (~99% purity) compared with 90% purity): retained its ability
- suppression of Akt-pS473 (Akt-pS473; indicated doses, 16 hrs): efficiently suppressed Akt-pS473
- inhibition of hydrolysis of ubiquitin-AMC by OTUD7B (OTUD7B): efficiently inhibited hydrolysis of ubiquitin-AMC
- cell growth (H520 cells): reduced growth
